# Source: patent US12661410B2, “Compounds for targeted degradation of RET” (C4 Therapeutics, Inc., priority 2020, dated 2026)
# Residue numbers refer to the chain shown, from its start. Like-named read-outs stand apart in the source and are kept apart here.
# Columns and labels:
# RET(KD: 658-1114 G810R) = target: T1, RET(KD: 658-1114 G810R) (Homo sapiens, UniProt P07949, G810R); test: HiBiT-Degradation, RET G810R degradation assay (Nano-Glo HiBiT Lytic), 293T.165 cells; type: cell-based; settings: for Emax / DC50: 6.0 hours
# T1 construct: 658-1114; expressed in transfected cells; host or cells: 293T.165 (293T cells, generated in-house)
# T1 sequence (P07949 658-1114 G810R): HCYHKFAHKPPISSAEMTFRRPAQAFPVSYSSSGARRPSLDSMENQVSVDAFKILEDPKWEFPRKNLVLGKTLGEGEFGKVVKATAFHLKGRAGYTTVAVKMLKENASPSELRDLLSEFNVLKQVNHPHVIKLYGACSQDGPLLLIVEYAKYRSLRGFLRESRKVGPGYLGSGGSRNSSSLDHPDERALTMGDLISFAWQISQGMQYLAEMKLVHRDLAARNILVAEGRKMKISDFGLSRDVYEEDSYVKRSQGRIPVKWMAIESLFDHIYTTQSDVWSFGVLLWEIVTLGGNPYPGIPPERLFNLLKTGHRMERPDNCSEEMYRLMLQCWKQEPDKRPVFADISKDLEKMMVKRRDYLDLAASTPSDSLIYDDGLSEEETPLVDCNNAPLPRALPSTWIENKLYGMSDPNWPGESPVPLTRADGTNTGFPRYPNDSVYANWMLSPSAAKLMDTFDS
# Summary of the method: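 Engineered 293T cells carry a HiBiT tag on the RET kinase domain, either wild type (line 293T.144) or G810R (line 293T.165). Compounds act for 6 h across a 10 μM-top, half-log 11-point range. Lytic HiBiT luminescence gives remaining protein, fitted for DC50 and Emax.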
# RET (658-1114) = target: T2, RET (658-1114) (Homo sapiens, UniProt P07949); test: HiBiT-Degradation, RET wild-type degradation assay (Nano-Glo HiBiT Lytic), 293T.144 cells; type: cell-based; settings: for DC50 / Emax: 6.0 hours
# T2 construct: 658-1114; expressed in transfected cells; host or cells: 293T.144 (293T cells, generated in-house)
# T2 sequence (P07949 658-1114): T1 sequence (P07949 658-1114 G810R) with R153G
# From the text: Dulbecco's modified Eagle medium (DMEM) no-phenol red media and fetal bovine serum (FBS) were purchased from Gibco (Grand Island, NY, USA). Cell lines ectopically expressing wild-type or G810R RET kinase domain fused with a HiBiT tag were generated in-house (293T. 144 and 293T. 165, respectively). Cell culture flasks and 384-well microplates were acquired from VWR (Radnor, PA, USA). The Nano-Glo® HiBiT Lytic Assay System was purchased from Promega (Madison, WI, USA).
# RET wild-type (WT) and G810R degradation were assessed using the Nano-Glo® HiBiT Lytic assay (Promega, Medison, WI, USA). To determine the effect of degraders on protein levels, cells were plated in 384-well plates and treated with compounds of interest in duplicates for 6 hours using an 11-point half-log dilution series, with the highest dose set at 10 μM. Cell lysis and addition of the Nano-Glo® HiBiT Lytic Assay reagents was then performed. Luminescence signal was measured using an EnVision™ Multimode plate reader (Perkin Elmer, Santa Clara, CA, USA). The half-maximal degradation concentration (DC50) and % remaining protein (Emax) was then derived from the dose-response curves.
# [1] = % remaining protein, read-out: 293T.165 RET(KD: 658-1114 G810R) 6.0 hours (Emax)
# [2] = half-maximal degradation concentration, read-out: 293T.165 RET(KD: 658-1114 G810R) 6.0 hours (DC50)
# [3] = HiBiT-Degradation, read-out: 293T.165 RET(KD: 658-1114 G810R) 6.0 hours (DC50)
# [4] = HiBiT-Degradation, read-out: 293T.144 RET (658-1114) 6.0 hours (DC50)
# [5] = HiBiT-Degradation, read-out: 293T.144 RET (658-1114) 6.0 hours (Emax)
# [6] = % remaining protein, read-out: 293T.144 RET (658-1114) 6.0 hours (Emax)
# [7] = half-maximal degradation concentration, read-out: 293T.144 RET (658-1114) 6.0 hours (DC50)
# [8] = RET G810R, read-out: HiBiT-Degradation 293T.165 RET(KD: 658-1114 G810R) 6.0 hours (DC50)
# [9] = RET G810R, read-out: HiBiT-Degradation 293T.165 RET(KD: 658-1114 G810R) 6.0 hours (Emax)
# [10] = RET wild-type, read-out: HiBiT-Degradation 293T.144 RET (658-1114) 6.0 hours (DC50)
# [11] = RET wild-type, read-out: HiBiT-Degradation 293T.144 RET (658-1114) 6.0 hours (Emax)
SMILES,Emax (RET(KD: 658-1114 G810R); [1]) [%],DC50 (RET(KD: 658-1114 G810R); [2]) [nM],293T.165 RET(KD: 658-1114 G810R) 6.0 hours (Emax) (RET(KD: 658-1114 G810R); HiBiT-Degradation),293T.165 RET(KD: 658-1114 G810R) 6.0 hours (IP) [nM] (RET(KD: 658-1114 G810R); HiBiT-Degradation),DC50 (RET(KD: 658-1114 G810R); [3]) [nM],293T.144 RET (658-1114) 6.0 hours (IP) [nM] (RET (658-1114); HiBiT-Degradation),DC50 (RET (658-1114); [4]) [nM],Emax (RET (658-1114); [5]) [%],293T.165 RET(KD: 658-1114 G810R) 6.0 hours (IP) [nM] (RET(KD: 658-1114 G810R)),293T.144 RET (658-1114) 6.0 hours (IP) [nM] (RET (658-1114)),Emax (RET (658-1114); [6]) [%],DC50 (RET (658-1114); [7]) [nM],HiBiT-Degradation 293T.165 RET(KD: 658-1114 G810R) 6.0 hours (IP) [nM] (RET(KD: 658-1114 G810R); RET G810R),DC50 (RET(KD: 658-1114 G810R); [8]) [nM],Emax (RET(KD: 658-1114 G810R); [9]) [%],HiBiT-Degradation 293T.144 RET (658-1114) 6.0 hours (IP) [nM] (RET (658-1114); RET wild-type),DC50 (RET (658-1114); [10]) [nM],Emax (RET (658-1114); [11]) [%]
"N#Cc1cnn2cc(-c3cnn(C4CCC(N5CCN(c6ccc(NC7CCC(=O)NC7=O)cc6F)CC5)CC4)c3)nc(-c3ccc(N4C[C@H]5COC[C@@H](C4)N5CC4CCC(F)(F)CC4)nc3)c12 (single isomer, unassigned) [Compound 150]",< 30,–,–,–,–,–,–,–,++++ (<50 nM = ++++),++++ (<50 nM = ++++),< 30,< 50,–,–,–,–,–,–
"CCC1(C(=O)NC2CCC2)CCN(c2ccc(-c3nc(-c4cnn([C@H]5C[C@](F)(CN6CCN(c7ccc(N[C@H]8CCC(=O)NC8=O)cc7F)CC6)C5)c4)cn4ncc(C#N)c34)cn2)CC1 [Compound 186, 1-[5-[3-cyano-6-[1-[3-[[4-[4-[[(3S)-2,6-dioxo-3-piperidyl]amino]-2-fluoro-phenyl]piperazin-1-yl]methyl]-3-fluoro-cyclobutyl]pyrazol-4-yl]pyrazolo[1,5-a]pyrazin-4-yl]-2-pyridyl]-N-cyclobutyl-4-ethyl-piperidine-4-carboxamide]",< 50,< 50,–,–,–,–,–,–,++++ (<50 nM = ++++),++++ (<50 nM = ++++),< 50,< 50,–,–,–,–,–,–
"COc1ccnc(CN2C3CC2CN(c2ccc(-c4cc(-c5cnn(C6CCN(C(=O)CN7CCC(c8ccc(NC9CCC(=O)NC9=O)cc8F)CC7)CC6)c5)cn5ncc(C#N)c45)cn2)C3)c1 (stereo not drawn) [Compound 71, 6-[1-[1-[2-[4-[4-[(2,6-dioxo-3-piperidyl)amino]-2-fluoro-phenyl]-1-piperidyl]acetyl]-4-piperidyl]pyrazol-4-yl]-4-[6-[6-[(4-methoxy-2-pyridyl)methyl]-3,6-diazabicyclo[3.1.1]heptan-3-yl]-3-pyridyl]pyrazolo[1,5-a]pyridine-3-carbonitrile]",< 30,< 100,–,–,–,–,–,–,–,–,–,–,++++ (< 50 nM = ++++),< 100,< 30,++++ (< 50 nM = ++++),< 50,< 30
"COc1ccc(CN2C3COCC2CN(c2ccc(-c4nc(-c5cnn(C6CCC(N7CCC(c8ccc(NC9CCC(=O)NC9=O)cc8Cl)CC7)CC6)c5)cn5ncc(C#N)c45)cn2)C3)cn1 (stereo not drawn) [Compound 206, 6-[1-[4-[4-[2-chloro-4-[(2,6-dioxo-3-piperidyl)amino]phenyl]-1-piperidyl]cyclohexyl]pyrazol-4-yl]-4-[6-[9-[(6-methoxy-3-pyridyl)methyl]-3-oxa-7,9-diazabicyclo[3.3.1]nonan-7-yl]-3-pyridyl]pyrazolo[1,5-a]pyrazine-3-carbonitrile]",< 30,< 100,–,–,–,–,–,–,++++ (<50 nM = ++++),++++ (<50 nM = ++++),< 30,< 50,–,–,–,–,–,–

# Second part, led by results:
Emax (RET(KD: 658-1114 G810R); [1]) [%],DC50 (RET(KD: 658-1114 G810R); [2]) [nM],293T.165 RET(KD: 658-1114 G810R) 6.0 hours (Emax) (RET(KD: 658-1114 G810R); HiBiT-Degradation),293T.165 RET(KD: 658-1114 G810R) 6.0 hours (IP) [nM] (RET(KD: 658-1114 G810R); HiBiT-Degradation),DC50 (RET(KD: 658-1114 G810R); [3]) [nM],293T.144 RET (658-1114) 6.0 hours (IP) [nM] (RET (658-1114); HiBiT-Degradation),DC50 (RET (658-1114); [4]) [nM],Emax (RET (658-1114); [5]) [%],SMILES,293T.165 RET(KD: 658-1114 G810R) 6.0 hours (IP) [nM] (RET(KD: 658-1114 G810R)),293T.144 RET (658-1114) 6.0 hours (IP) [nM] (RET (658-1114)),Emax (RET (658-1114); [6]) [%],DC50 (RET (658-1114); [7]) [nM],HiBiT-Degradation 293T.165 RET(KD: 658-1114 G810R) 6.0 hours (IP) [nM] (RET(KD: 658-1114 G810R); RET G810R),DC50 (RET(KD: 658-1114 G810R); [8]) [nM],Emax (RET(KD: 658-1114 G810R); [9]) [%],HiBiT-Degradation 293T.144 RET (658-1114) 6.0 hours (IP) [nM] (RET (658-1114); RET wild-type),DC50 (RET (658-1114); [10]) [nM],Emax (RET (658-1114); [11]) [%]
< 30,< 50,++++ (< 30% = ++++),++++ (< 50 nM = ++++),< 50,++++ (< 50 nM = ++++),< 50,< 30,"CCC1(C(=O)NC(C)C)CCN(c2ccc(-c3cc(-c4cnn(C5CCN(C(=O)CN6CCC(c7ccc(NC8CCC(=O)NC8=O)cc7F)CC6)CC5)c4)cn4ncc(C#N)c34)cn2)CC1 (stereo not drawn) [Compound 3, 1-(5-(3-Cyano-6-(1-(1-(2-(4-(4-((2,6-dioxopiperidin-3-yl)amino)-2-fluorophenyl)piperidin-1-yl)acetyl)piperidin-4-yl)-1H-pyrazol-4-yl)pyrazolo[1,5-a]pyridin-4-yl)pyridin-2-yl)-4-ethyl-N-isopropylpiperidine-4-carboxamide]",–,–,–,–,–,–,–,–,–,–
< 50,< 100,–,–,–,–,–,–,"N#Cc1cnn2cc(-c3ccc(N4CCN(C(=O)CN5CCC(c6ccc(NC7CCC(=O)NC7=O)cc6F)CC5)CC4)nc3)cc(-c3ccc(N4CCN(Cc5ccccn5)CC4)nc3)c12 (stereo not drawn) [Compound 67, 6-[6-[4-[2-[4-[4-[(2,6-dioxo-3-piperidyl)amino]-2-fluoro-phenyl]-1-piperidyl]acetyl]piperazin-1-yl]-3-pyridyl]-4-[6-[4-(2-pyridylmethyl)piperazin-1-yl]-3-pyridyl]pyrazolo[1,5-a]pyridine-3-carbonitrile]",–,–,–,–,++++ (< 50 nM = ++++),< 100,< 50,++++ (< 50 nM = ++++),< 50,< 30
< 30,< 100,++++ (< 30% = ++++),++++ (< 50 nM = ++++),< 100,++++ (< 50 nM = ++++),< 50,< 30,"CC(C)NC(=O)C1(C)CCN(c2ccc(-c3cc(-c4ccc(N5CCN(C(=O)CN6CCC(c7ccc(NC8CCC(=O)NC8=O)cc7F)CC6)CC5)cc4)cn4ncc(C#N)c34)cc2)CC1 (stereo not drawn) [Compound 50, 1-[4-[3-cyano-6-[4-[4-[2-[4-[4-[(2,6-dioxo-3-piperidyl)amino]-2-fluoro-phenyl]-1-piperidyl]acetyl]piperazin-1-yl]phenyl]pyrazolo[1,5-a]pyridin-4-yl]phenyl]-N-isopropyl-4-methyl-piperidine-4-carboxamide]",–,–,–,–,–,–,–,–,–,–
< 30,< 50,++++ (< 30% = ++++),++++ (< 50 nM = ++++),< 50,++++ (< 50 nM = ++++),< 50,< 30,"CCC1(C(=O)NC2CCC2)CCN(c2ccc(-c3cc(-c4cnn(C5CCN(C(=O)CN6CCC(c7ccc(NC8CCC(=O)NC8=O)cc7F)CC6)CC5)c4)cn4ncc(C#N)c34)cn2)CC1 (stereo not drawn) [Compound 8, 1-(5-(3-Cyano-6-(1-(1-(2-(4-(4-((2,6-dioxopiperidin-3-yl)amino)-2-fluorophenyl)piperidin-1-yl)acetyl)piperidin-4-yl)-1H-pyrazol-4-yl)pyrazolo[1,5-a]pyridin-4-yl)pyridin-2-yl)-N-cyclobutyl-4-ethylpiperidine-4-carboxamide]",–,–,–,–,–,–,–,–,–,–
